Data from the supplement of paper PMC4862054.

Experiments:
Details in all cases: incubation time: 72 h
[1] = test system: BT-549; assay: normalised response (% of control), CellTox Green; higher = less cell death (100 = DMSO, 0 = benzethonium chloride kill control)
Procedure, shortened: (§1)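 For each plate, 0.1 % DMSO was set to 100 and a positive kill control to 0. Breast cancer cell lines (20 µl suspension) were seeded into 384-well plates already holding compound at 5 concentrations in 10-fold steps over a 10,000-fold range chosen per compound, and incubated for 72 h. CellTox Green fluorescence at 485/520 nm was read before CellTiter-Glo luminescence, which followed 10 min at room temperature. Each value is the normalised signal at one concentration.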

[2] = test system: CAL-120; assay: as above
Procedure, shortened: as §1

[3] = test system: CAL-148; assay: as above
Procedure, shortened: as §1

[4] = test system: CAL-51; assay: as above
Procedure, shortened: as §1

[5] = test system: CAL-85-1; assay: as above
Procedure, shortened: as §1

[6] = test system: DU-4475; assay: as above
Procedure, shortened: as §1

[7] = test system: HCC1143; assay: as above
Procedure, shortened: as §1

[8] = test system: HCC1599; assay: as above
Procedure, shortened: as §1

[9] = test system: HDQ-P1; assay: as above
Procedure, shortened: as §1

[10] = test system: Hs578T; assay: as above
Procedure, shortened: as §1

[11] = test system: MCF-10A; assay: as above
Procedure, shortened: as §1

[12] = test system: MDA-MB-231; assay: as above
Procedure, shortened: as §1

[13] = test system: MDA-MB-436; assay: as above
Procedure, shortened: as §1

[14] = test system: MDA-MB-453; assay: as above
Procedure, shortened: as §1

[15] = test system: MFM-223; assay: as above
Procedure, shortened: as §1

[16] = test system: BT-474; assay: normalised response (% of control), CellTiter-Glo; higher = more viable cells (100 = DMSO, 0 = benzethonium chloride kill control)
Experimental: (§2)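 DSRT, 72 h incubation, CellTox Green / CellTiter-Glo readout. Signal is normalised to DMSO and benzethonium chloride controls. Value is the normalised response at the highest dose.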

[17] = test system: BT-549; assay: as above
Experimental: as §2

[18] = test system: CAL-120; assay: as above
Experimental: as §2

[19] = test system: CAL-148; assay: as above
Experimental: as §2

[20] = test system: CAL-51; assay: as above
Experimental: as §2

[21] = test system: CAL-85-1; assay: as above
Experimental: as §2

[22] = test system: DU-4475; assay: as above
Experimental: as §2

[23] = test system: HCC1143; assay: as above
Experimental: as §2

[24] = test system: HCC1599; assay: as above
Experimental: as §2

[25] = test system: HCC1937; assay: as above
Experimental: as §2

[26] = test system: HDQ-P1; assay: as above
Experimental: as §2

[27] = test system: Hs578T; assay: as above
Experimental: as §2

[28] = test system: MCF-10A; assay: as above
Experimental: as §2

[29] = test system: MDA-MB-231; assay: as above
Experimental: as §2

[30] = test system: MDA-MB-436; assay: as above
Experimental: as §2

[31] = test system: MDA-MB-453; assay: as above
Experimental: as §2

[32] = test system: MDA-MB-468; assay: as above
Experimental: as §2

[33] = test system: MFM-223; assay: as above
Experimental: as §2

[34] = test system: SK-BR-3; assay: as above
Experimental: as §2

[35] = test system: BT-474; assay: normalised response (% of control), CellTox Green; higher = less cell death (100 = DMSO, 0 = benzethonium chloride kill control)
Procedure, shortened: as §1

[36] = test system: HCC1937; assay: as above
Procedure, shortened: as §1

[37] = test system: MDA-MB-468; assay: as above
Procedure, shortened: as §1

[38] = test system: BT-474; assay: normalised response (% of control), CellTiter-Glo; higher = more viable cells (100 = DMSO, 0 = benzethonium chloride kill control); remark: listed apart in the source
Procedure, shortened: as §1

[39] = test system: BT-549; assay: as above; remark: listed apart in the source
Procedure, shortened: as §1

[40] = test system: CAL-120; assay: as above; remark: listed apart in the source
Procedure, shortened: as §1

[41] = test system: CAL-148; assay: as above; remark: listed apart in the source
Procedure, shortened: as §1

[42] = test system: CAL-51; assay: as above; remark: listed apart in the source
Procedure, shortened: as §1

[43] = test system: CAL-85-1; assay: as above; remark: listed apart in the source
Procedure, shortened: as §1

[44] = test system: DU-4475; assay: as above; remark: listed apart in the source
Procedure, shortened: as §1

[45] = test system: HCC1143; assay: as above; remark: listed apart in the source
Procedure, shortened: as §1

[46] = test system: HCC1599; assay: as above; remark: listed apart in the source
Procedure, shortened: as §1

[47] = test system: HCC1937; assay: as above; remark: listed apart in the source
Procedure, shortened: as §1

[48] = test system: HDQ-P1; assay: as above; remark: listed apart in the source
Procedure, shortened: as §1

[49] = test system: Hs578T; assay: as above; remark: listed apart in the source
Procedure, shortened: as §1

[50] = test system: MCF-10A; assay: as above; remark: listed apart in the source
Procedure, shortened: as §1

[51] = test system: MDA-MB-231; assay: as above; remark: listed apart in the source
Procedure, shortened: as §1

[52] = test system: MDA-MB-436; assay: as above; remark: listed apart in the source
Procedure, shortened: as §1

[53] = test system: MDA-MB-453; assay: as above; remark: listed apart in the source
Procedure, shortened: as §1

[54] = test system: MDA-MB-468; assay: as above; remark: listed apart in the source
Procedure, shortened: as §1

[55] = test system: MFM-223; assay: as above; remark: listed apart in the source
Procedure, shortened: as §1

[56] = test system: SK-BR-3; assay: as above; remark: listed apart in the source
Procedure, shortened: as §1

Structure (SMILES): CS(=O)(=O)c1ccc(C2=C(c3ccccc3)C(=O)OC2)cc1 [Rofecoxib] (10000 nM)
- normalised response [1]: 102%
- normalised response [2]: 105%
- normalised response [3]: 98.8%
- normalised response [4]: 98.7%
- normalised response [5]: 84.6%
- normalised response [6]: 101%
- normalised response [7]: 114%
- normalised response [8]: 97.2%
- normalised response [9]: 112%
- normalised response [10]: 128%
- normalised response [11]: 102%
- normalised response [12]: 108%
- normalised response [13]: 77.7%
- normalised response [14]: 66.6%
- normalised response [15]: 68.2%
- normalised response [16]: 94.5%
- normalised response [17]: 103%
- normalised response [18]: 102%
- normalised response [19]: 119%
- normalised response [20]: 71.8%
- normalised response [21]: 100%
- normalised response [22]: 100%
- normalised response [23]: 105%
- normalised response [24]: 100%
- normalised response [25]: 106%
- normalised response [26]: 99.8%
- normalised response [27]: 110%
- normalised response [28]: 109%
- normalised response [29]: 100%
- normalised response [30]: 111%
- normalised response [31]: 98.6%
- normalised response [32]: 113%
- normalised response [33]: 102%
- normalised response [34]: 106%

Structure (SMILES): CCC(C)(C)C(=O)O[C@H]1C[C@@H](C)C=C2C=C[C@H](C)[C@H](CC[C@@H]3C[C@@H](O)CC(=O)O3)[C@H]21 [Simvastatin] (10000 nM)
- normalised response [35]: 99.9%
- normalised response [1]: 98.6%
- normalised response [2]: 77.4%
- normalised response [3]: 104%
- normalised response [4]: 46.8%
- normalised response [5]: 84.3%
- normalised response [6]: 99%
- normalised response [36]: 95.6%
- normalised response [9]: 82.2%
- normalised response [11]: 23.2%
- normalised response [12]: -117%
- normalised response [13]: 51.8%
- normalised response [14]: 104%
- normalised response [15]: 104%
- normalised response [16]: 47.2%
- normalised response [17]: 87.7%
- normalised response [18]: 91.8%
- normalised response [19]: 102%
- normalised response [20]: 78.4%
- normalised response [21]: 84.4%
- normalised response [22]: 94.2%
- normalised response [23]: 95.9%
- normalised response [24]: 103%
- normalised response [25]: 92.6%
- normalised response [26]: 65%
- normalised response [27]: 91.2%
- normalised response [28]: 23.9%
- normalised response [29]: 30%
- normalised response [30]: 84.9%
- normalised response [31]: 93.3%
- normalised response [32]: 83.2%
- normalised response [33]: 97.9%
- normalised response [34]: 98.9%

Structure (SMILES): CN[C@@H]1C[C@H]2O[C@@](C)([C@@H]1OC)n1c3ccccc3c3c4c(c5c6ccccc6n2c5c31)C(=O)N[C@H]4O [UCN-01] (100 nM)
- normalised response [35]: 80.8%
- normalised response [1]: 62.6%
- normalised response [2]: 88.8%
- normalised response [3]: 86%
- normalised response [4]: 56.1%
- normalised response [5]: 54.8%
- normalised response [6]: 91.2%
- normalised response [7]: 84.4%
- normalised response [8]: 85.5%
- normalised response [36]: 92.9%
- normalised response [9]: 50.5%
- normalised response [10]: 55%
- normalised response [11]: 75.5%
- normalised response [12]: 40.7%
- normalised response [13]: 77.1%
- normalised response [14]: 90.4%
- normalised response [37]: 76.9%
- normalised response [15]: 80.2%
- normalised response [38]: 33.1%
- normalised response [39]: 52.1%
- normalised response [40]: 37%
- normalised response [41]: 109%
- normalised response [42]: 39%
- normalised response [43]: 44.2%
- normalised response [44]: 77.8%
- normalised response [45]: 63.1%
- normalised response [46]: 14.1%
- normalised response [47]: 54.4%
- normalised response [48]: 68.3%
- normalised response [49]: 19.5%
- normalised response [50]: 24%
- normalised response [51]: 25%
- normalised response [52]: 52%
- normalised response [53]: 62.4%
- normalised response [54]: 48.2%
- normalised response [55]: 70.9%
- normalised response [56]: 39.4%
